Test results as given in patent publication US4513009A, “Aminoacid derivatives and their therapeutic applications” (priority 1980, dated 1985).
pIC50: −log10 of the molar value. Read-outs that look alike come from different tables or passages of the source.

Tests used:
[1] = target: enkephalinase (enkephalin dipeptidylcarboxypeptidase); experiment: Determination of enkephalinasic (enkephalin dipeptidylcarboxypeptidasic) activity and effect of inhibitors, striatal membrane fraction, 3H-leucine-enkephalin; type: biochemical, rats or mice; conditions: 10 nM leucine-enkephalin 3H, 25° C., pH 7.4, 15 mn, read-out: 50% inhibitory concentration
Protocol: Determination of the "enkephalinasic" (enkephalin dipeptidylcarboxypeptidasic) activity and determination of the effect of inhibitors.
The enzyme preparation used is a membrane fraction from the striatum of rats or mice.
This fraction is obtained by homogenization at 4° C. in 20 volumes Tris-HCl buffer 0.05M (pH 7.4) followed by two successive centrifugations (1000 g×min. and 200,000 g×min.) at the end of which the sediment of the second centrifugation is retained. It is washed by re-suspension in 10 ml of the buffer followed by centrifugation (200,000 g×min) and the resulting sediment is in turn washed superficially to complete the removal of the soluble enzymes. The resulting membrane fraction is taken up into the buffer at 4° C., to obtain a suspension comprising about 1.5 mg proteins per ml.
An aliquot sample (50 μl) of the membrane suspension is then incubated in a final volume of 100 μl at 25° C. in the presence of 10 nM leucine-enkephalin ^3 H (39 Ci/mmole), previously purified by column chromatography over Porapak Q (100-120 mesh, Waters Assoc.) and […] puromycine, an aminopeptidase inhibitor. Incubation time is generally set at 15 mn. in order to determine the initial rate of the formation of tripeptide Tyr-Gly-Gly-^3 H characteristic of the enkephalin dipeptidylcarboxypeptidasic (enkephalinasic) activity.
Determination of the radioactivity of the tripeptide is effected by liquid scintillation spectrometry. […]

[2] = tested on: licking reflex of mice on a plate heated at 55° C.; experiment: Hot-plate test (55° C.): potentiation of the antalgic effect of D Ala2 Met Enkephalin and Naloxone antagonism; type: in vivo; conditions: for % Increase of the licking time with respect to the animals treated with D Ala2 Met Enkephalin (1): dosage 10 α/mouse; for Potentiation of the effect of a subactive dosage of D Ala2 Met Enkephalin: 0.3γ D Ala2 Met Enkephalin
Protocol: (§1) Licking reflex of mice on a plate heated at 55° C. according to the method of Jacob. and co-workers (Arch. Int. Pharmacodyn. 122, 287-300, 1959: 133, 296-300, 1961).
(a) Potentiation of the antalgic effect of D Ala2 Met Enkephalin
(α) By the intraventricular route (ivt)
(β) By the intravenous route

blood-pressure = experiment: Hypotensive activity; type: in vivo, dogs; conditions: Canis lupus familiaris; intravenous administration; read-out: lowest dosage producing a decrease of the blood-pressure
From the text: enkephalin-potentiating activity, (LAUBIE M., SCHMITT H., VINCENT M., REMON D. Central cardiovascular effects of Morphinometric peptids in dogs. European Journal of Pharmacology, Vol. 46, 67-71, 1977).

Tail of the mice = conditions: for potentiation of D Ala2 Met Enkephalin: compound i.v. 100 mg/kg, D Ala2 Met Enkephalin 15 minutes later, ivt, 10 to 30γ/mouse; for specific antalgic effect (tail withdrawal): i.v. 100 mg/kg
[3] = tested on: licking reflex of mice on a plate heated at 55° C.; experiment: Hot-plate test (55° C.): specific antalgic effect; type: in vivo; conditions: intravenous; for ED50: Mus musculus, hot plate 55° C.
Protocol: as §1
(b) Specific antalgic effect

[4] = tested on: phenylbenzoquinone-induced pain; experiment: Phenylbenzoquinone or writhing test; type: in vivo; conditions: 0.7 mg/kg i.v.; vs controls p<0.01
From the text: 3--Phenylbenzoquinone or "writhing test" according to the method of SIEGMUND and co-workers (Proc. Soc. Expert. Biol. Med. 1957, 95, 729-731).

[5] = ivt, + D Ala2 Met Enkephalin 0.3 α/mouse

## O=C(CNC(=O)C(CS)Cc1ccccc1)OCc1ccccc1 (centres unmarked) [Compound 57, N-[3-Mercapto-2-benzyl-propanoyl]glycine benzyl ester]
[1]
  pIC50: 8.11

## C=CCN1CC[C@]23c4c5ccc(O)c4O[C@H]2C(=O)CC[C@@]3(O)[C@H]1C5 [Naloxone, reference compound]
[2]; ivt, compounds + D Ala2 Met Enkephalin
  antagonism of the potentiated antalgic effect by Naloxone: this effect is antagonized by Naloxone

## CC(C)C[C@H](NC(=O)C(CS)Cc1ccccc1)C(=O)O (stereo partly drawn) [Compound 18, N[(R,S)3-mercapto-2-benzyl-propionyl]-L.leucine]
blood-pressure
  minimal effective dose: 0.3 mg/kg
Tail of the mice; 100 mg/kg i.v. + D Ala2 Met Enkephalin (30 γ ivt), 20 mn
  Increase reaction time (%): 0%
Tail of the mice; 100 mg/kg i.v. + D Ala2 Met Enkephalin (30 γ ivt), 45 mn
  Increase reaction time (%): 280%
Tail of the mice; 100 mg/kg i.v. + D Ala2 Met Enkephalin (30 γ ivt), 60 mn
  Increase reaction time (%): 166%
Tail of the mice; 100 mg/kg i.v. + D Ala2 Met Enkephalin (30 γ ivt), 90 mn
  Increase reaction time (%): 87%
Tail of the mice; 100 mg/kg i.v. + D Ala2 Met Enkephalin (30 γ ivt), 120 mn
  Increase reaction time (%): 174%
Tail of the mice; 100 mg/kg i.v. alone, 20 mn
  Increase reaction time (%): 38%
Tail of the mice; 100 mg/kg i.v. alone, 45 mn
  Increase reaction time (%): 80%
Tail of the mice; 100 mg/kg i.v. alone, 60 mn
  Increase reaction time (%): 120%
Tail of the mice; 100 mg/kg i.v. alone, 90 mn
  Increase reaction time (%): 61%
Tail of the mice; 100 mg/kg i.v. alone, 120 mn
  Increase reaction time (%): 90%
Tail of the mice
  potentiation of D Ala2 Met Enkephalin: potentiate most significantly
  specific antalgic effect (tail withdrawal): exhibit a specific antalgic affect

## COC(=O)CNC(=O)C(CSC(C)=O)Cc1ccccc1 (racemic) [Compound 19, N-[(RS)-3-acetylthio-2-benzyl-propionyl]glycine methyl ester]
[3]
  ED50: 30 mg/kg
  antalgic effect in the hot (55° C.) plate test: have an antalgic effect

## COC(=O)[C@H](CC(C)C)NC(=O)[C@H](Cc1ccccc1)SC(C)=O [Compound 29, N-[(S)-2-acetylthio-3-phenyl-propionyl]-L.leucine methyl ester]
[2]; [5]
  % Increase of the licking time with respect to the animals treated with D Ala2 Met Enkephalin (1): 207%
[2]; ivt
  Potentiation of the effect of a subactive dosage of D Ala2 Met Enkephalin: significantly potentiated (p≤0.05)

## CC(=O)SCC(Cc1ccccc1)C(=O)NCC(=O)NCc1ccccc1 (centres unmarked) [Compound 56, N-[3-Acetylthio-2-benzylpropanoyl]glycine benzylamide]
[1]
  pIC50: 6.40

## CC(=O)SCC(Cc1ccccc1)C(=O)NCC(=O)OCC(F)(F)F (centres unmarked) [Compound 55, N-[3-Acetylthio-2-benzylpropanoyl]-glycine-2,2,2-trifluoroethyl ester]
[1]
  pIC50: 6.46

## CC(C)C[C@H](NC(=O)[C@@H](Cc1ccccc1)NCC(=O)O)C(=O)O [Compound 5, N-(carboxy-methyl)-D.phenylalanine-L.leucine]
[1]
  pIC50: 4.70

## CC(=O)SCS[C@@H](Cc1ccccc1)C(=O)N[C@@H](CC(C)C)C(=O)O [Compound 33, N-[(S)-2-acetylthiomethylthio-3-phenyl-propionyl]-L.leucine]
[1]
  pIC50: 6.00

## O=C(CNC(=O)C(CS)Cc1ccccc1)NCc1ccccc1 (centres unmarked) [Compound 60, N-[3-Mercapto-2-benzyl-propanoyl]glycine benzylamide]
[1]
  pIC50: 7.52

## CC(C)C[C@H](NC(=O)[C@H](Cc1ccccc1)NCC(=O)O)C(=O)O [Compound 2, N-(carboxy-methyl)L.phenylalanine-L.leucine]
[2]; [5]
  % Increase of the licking time with respect to the animals treated with D Ala2 Met Enkephalin (1): 274%
[2]; ivt
  Potentiation of the effect of a subactive dosage of D Ala2 Met Enkephalin: significantly potentiated (p≤0.05)
[1]
  pIC50: 5.82

## CC(=O)SCC(Cc1ccccc1)C(=O)NCC(=O)OCc1ccc(F)cc1 (centres unmarked) [Compound 54, N-[3-Acetylthio-2-benzylpropanoyl]glycine(p.fluoro)-benzylester]
[1]
  pIC50: 6.59
[4]
  protection from phenylbenzoquinone-induced pain: protect the treated animals from phenylbenzoquinone-induced pain, with a significant difference with respect to the controls, p<0.01
[3]
  ED50: 3 mg/kg
  antalgic effect in the hot (55° C.) plate test: have an antalgic effect

## D Ala2 Met Enkephalin [reference compound]
[2]; 0.3 α/mouse, ivt
  activity of D Ala2 Met Enkephalin per se: inactive per se

## O=C(O)CNC(=O)C(CS)Cc1ccccc1 (racemic) [Compound 20, N-[(R,S)-3-mercapto-2-benzyl-propionyl]glycine]
[1]
  pIC50: 8.30
Tail of the mice; 30 mg/kg i.v. + D Ala2 Met Enkephalin (15 γ ivt), 20 mn
  Increase reaction time (%): 247%
Tail of the mice; 30 mg/kg i.v. + D Ala2 Met Enkephalin (15 γ ivt), 45 mn
  Increase reaction time (%): 353%
Tail of the mice; 30 mg/kg i.v. + D Ala2 Met Enkephalin (15 γ ivt), 60 mn
  Increase reaction time (%): 283%
Tail of the mice; 30 mg/kg i.v. + D Ala2 Met Enkephalin (15 γ ivt), 90 mn
  Increase reaction time (%): 210%
Tail of the mice; 30 mg/kg i.v. + D Ala2 Met Enkephalin (15 γ ivt), 120 mn
  Increase reaction time (%): 203%
Tail of the mice; 100 mg/kg i.v. + D Ala2 Met Enkephalin (15 γ ivt), 20 mn
  Increase reaction time (%): 239%
Tail of the mice; 100 mg/kg i.v. + D Ala2 Met Enkephalin (15 γ ivt), 45 mn
  Increase reaction time (%): 528%
Tail of the mice; 100 mg/kg i.v. + D Ala2 Met Enkephalin (15 γ ivt), 60 mn
  Increase reaction time (%): 321%
Tail of the mice; 100 mg/kg i.v. + D Ala2 Met Enkephalin (15 γ ivt), 90 mn
  Increase reaction time (%): 382%
Tail of the mice; 100 mg/kg i.v. + D Ala2 Met Enkephalin (15 γ ivt), 120 mn
  Increase reaction time (%): 322%
Tail of the mice; 100 mg/kg i.v. alone, 20 mn
  Increase reaction time (%): 59%
Tail of the mice; 100 mg/kg i.v. alone, 45 mn
  Increase reaction time (%): 196%
Tail of the mice; 100 mg/kg i.v. alone, 60 mn
  Increase reaction time (%): 150%
Tail of the mice; 100 mg/kg i.v. alone, 90 mn
  Increase reaction time (%): 88%
Tail of the mice; 100 mg/kg i.v. alone, 120 mn
  Increase reaction time (%): 85%
Tail of the mice
  potentiation of D Ala2 Met Enkephalin: potentiate most significantly
  specific antalgic effect (tail withdrawal): exhibit a specific antalgic affect

## CC(C)C[C@H](NC(=O)[C@@H](S)Cc1ccccc1)C(=O)O [Compound 28, N-[(S)-2-mercapto-3-phenyl-propionyl]-L.leucine]
[2]; [5]
  % Increase of the licking time with respect to the animals treated with D Ala2 Met Enkephalin (1): 400%
[2]; ivt
  Potentiation of the effect of a subactive dosage of D Ala2 Met Enkephalin: significantly potentiated (p≤0.05)

## CC(C)C[C@H](NC(=O)[C@H](Cc1ccccc1)SCCS)C(=O)O [Compound 35, N-[(S)-2-mercapto-ethylthio-3-phenyl-propionyl]-L.leucine]
[2]; compound i.v. 100 mg/kg, D Ala2 Met Enkephalin 0.3γ intraventricular
  increase of the licking time with respect to the animals treated with D Ala2 Met Enkephalin: 100%
[2]; [5]
  % Increase of the licking time with respect to the animals treated with D Ala2 Met Enkephalin (1): 240%
[2]; ivt, + D Ala2 Met Enkephalin 0.3 α/mouse + Naloxone 10 mg/kg s.c.
  % Increase of the licking time with respect to the animals treated with D Ala2 Met Enkephalin (1): 18%
[2]; ivt
  Potentiation of the effect of a subactive dosage of D Ala2 Met Enkephalin: significantly potentiated (p≤0.05)
[1]
  pIC50: 6.40

## CC(C)C[C@H](NC(=O)[C@H](Cc1ccccc1)SC(=O)c1ccccc1)C(=O)O [Compound 27, N-[(S)-2-benzoylthio-3-phenyl-propionyl]-L.leucine]
[1]
  pIC50: 5.30

## C[C@H](NC(=O)[C@@H](S)Cc1ccccc1)C(=O)O [Compound 32, N-[(S)-2-mercapto-3-phenyl-propionyl]-L.alanine]
[1]
  pIC50: 7.00
